The target in test [1] is High affinity nerve growth factor receptor (Homo sapiens, UniProt P04629, G595R). The experiment in a line: Inhibition of TRKA G595R mutant (unknown origin) using TK as substrate incubated for 30 mins in presence of ATP by HTRF assay. In general terms: Time-resolved FRET reads energy transfer from a long-lived donor to a nearby acceptor.
The target of test [2] is High affinity nerve growth factor receptor (Homo sapiens, UniProt P04629, F589L). The experiment in a line: Inhibition of TRKA F589L mutant (unknown origin) using TK as substrate incubated for 30 mins in presence of ATP by HTRF assay.
High affinity nerve growth factor receptor (Homo sapiens, UniProt P04629, F589L), sequence (P04629 33-796 F589L limits assumed): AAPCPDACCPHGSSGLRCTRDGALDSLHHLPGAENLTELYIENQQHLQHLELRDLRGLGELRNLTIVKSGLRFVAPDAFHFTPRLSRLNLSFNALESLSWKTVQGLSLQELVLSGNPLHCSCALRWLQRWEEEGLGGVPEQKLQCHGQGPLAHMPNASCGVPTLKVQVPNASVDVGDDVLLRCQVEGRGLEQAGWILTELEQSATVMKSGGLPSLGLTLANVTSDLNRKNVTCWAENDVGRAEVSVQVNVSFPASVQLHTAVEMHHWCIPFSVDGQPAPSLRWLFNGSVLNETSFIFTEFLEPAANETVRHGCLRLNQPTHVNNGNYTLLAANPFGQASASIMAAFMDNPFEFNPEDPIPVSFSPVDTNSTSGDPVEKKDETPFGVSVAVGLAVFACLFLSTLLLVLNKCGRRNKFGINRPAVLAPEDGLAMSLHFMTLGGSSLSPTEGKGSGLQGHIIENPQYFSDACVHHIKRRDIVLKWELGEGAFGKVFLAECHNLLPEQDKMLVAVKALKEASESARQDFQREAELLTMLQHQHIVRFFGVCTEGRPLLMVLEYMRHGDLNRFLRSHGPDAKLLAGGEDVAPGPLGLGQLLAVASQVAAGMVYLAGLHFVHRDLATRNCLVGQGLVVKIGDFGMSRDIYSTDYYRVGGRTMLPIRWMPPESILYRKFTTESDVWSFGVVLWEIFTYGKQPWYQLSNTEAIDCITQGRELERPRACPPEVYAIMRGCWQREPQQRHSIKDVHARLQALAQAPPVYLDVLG
Test [3] deals with High affinity nerve growth factor receptor (Homo sapiens, UniProt P04629, G667C). Put plainly: Inhibition of TRKA G667C mutant (unknown origin) using TK as substrate incubated for 30 mins in presence of ATP by HTRF assay.
High affinity nerve growth factor receptor (Homo sapiens, UniProt P04629, G667C), sequence (P04629 33-796 G667C limits assumed): as the sequence (P04629 33-796 F589L limits assumed) above, with L557F, G635C counted along it
For test [4], the target named is High affinity nerve growth factor receptor (Homo sapiens, UniProt P04629). Put plainly: Inhibition of TRKA (unknown origin) using TK as substrate incubated for 30 mins in presence of ATP by HTRF assay.
High affinity nerve growth factor receptor (Homo sapiens, UniProt P04629), sequence (P04629 whole entry): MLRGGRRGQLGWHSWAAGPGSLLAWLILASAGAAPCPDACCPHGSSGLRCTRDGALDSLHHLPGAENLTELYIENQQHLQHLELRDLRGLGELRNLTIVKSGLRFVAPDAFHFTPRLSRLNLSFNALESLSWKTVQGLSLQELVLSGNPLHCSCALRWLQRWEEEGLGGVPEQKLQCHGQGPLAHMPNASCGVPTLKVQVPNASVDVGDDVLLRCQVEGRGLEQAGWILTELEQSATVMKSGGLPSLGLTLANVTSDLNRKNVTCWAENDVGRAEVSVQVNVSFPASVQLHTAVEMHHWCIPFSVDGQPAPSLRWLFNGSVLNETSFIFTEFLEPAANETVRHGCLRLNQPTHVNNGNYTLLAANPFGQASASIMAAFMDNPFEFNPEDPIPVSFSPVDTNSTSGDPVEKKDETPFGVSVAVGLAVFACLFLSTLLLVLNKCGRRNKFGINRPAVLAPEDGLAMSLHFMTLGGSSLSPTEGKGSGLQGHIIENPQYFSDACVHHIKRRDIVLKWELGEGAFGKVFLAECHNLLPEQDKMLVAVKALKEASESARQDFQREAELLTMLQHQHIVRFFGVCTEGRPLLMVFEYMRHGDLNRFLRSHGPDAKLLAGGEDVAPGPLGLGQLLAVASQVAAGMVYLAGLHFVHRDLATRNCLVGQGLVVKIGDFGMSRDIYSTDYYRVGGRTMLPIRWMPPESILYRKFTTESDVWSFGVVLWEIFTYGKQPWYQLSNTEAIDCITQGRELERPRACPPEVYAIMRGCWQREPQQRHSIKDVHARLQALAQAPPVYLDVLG
Test [5] addresses NT-3 growth factor receptor (Homo sapiens, UniProt Q16288). Put plainly: Inhibition of TRKC (unknown origin) using TK as substrate incubated for 40 mins in presence of ATP by HTRF assay.
The next test deals with KM12. Put plainly: cells. The following applies: Homo sapiens, KM12, 72 h.
The test system of test [6] is BaF3. Put plainly: cells. Conditions: Mus musculus, BaF3, 72 h.
Description: Antiproliferative activity against mouse BaF3 cells expressing TRKA G595R mutant incubated for 72 hrs by CCK8 assay
For test [7], the system named is BaF3. The experiment in a line: cells. The following applies: Mus musculus, BaF3, 72 h. This is another data set of the same source.
A further test concerns MCF7. Put plainly: cells. The following applies: Homo sapiens, MCF7, 72 h.

High affinity nerve growth factor receptor (Homo sapiens, UniProt P04629, G595R), sequence (P04629 33-796 G595R limits assumed): as the sequence (P04629 33-796 F589L limits assumed) above, with L557F, G563R counted along it
NT-3 growth factor receptor, sequence (Q16288 whole entry): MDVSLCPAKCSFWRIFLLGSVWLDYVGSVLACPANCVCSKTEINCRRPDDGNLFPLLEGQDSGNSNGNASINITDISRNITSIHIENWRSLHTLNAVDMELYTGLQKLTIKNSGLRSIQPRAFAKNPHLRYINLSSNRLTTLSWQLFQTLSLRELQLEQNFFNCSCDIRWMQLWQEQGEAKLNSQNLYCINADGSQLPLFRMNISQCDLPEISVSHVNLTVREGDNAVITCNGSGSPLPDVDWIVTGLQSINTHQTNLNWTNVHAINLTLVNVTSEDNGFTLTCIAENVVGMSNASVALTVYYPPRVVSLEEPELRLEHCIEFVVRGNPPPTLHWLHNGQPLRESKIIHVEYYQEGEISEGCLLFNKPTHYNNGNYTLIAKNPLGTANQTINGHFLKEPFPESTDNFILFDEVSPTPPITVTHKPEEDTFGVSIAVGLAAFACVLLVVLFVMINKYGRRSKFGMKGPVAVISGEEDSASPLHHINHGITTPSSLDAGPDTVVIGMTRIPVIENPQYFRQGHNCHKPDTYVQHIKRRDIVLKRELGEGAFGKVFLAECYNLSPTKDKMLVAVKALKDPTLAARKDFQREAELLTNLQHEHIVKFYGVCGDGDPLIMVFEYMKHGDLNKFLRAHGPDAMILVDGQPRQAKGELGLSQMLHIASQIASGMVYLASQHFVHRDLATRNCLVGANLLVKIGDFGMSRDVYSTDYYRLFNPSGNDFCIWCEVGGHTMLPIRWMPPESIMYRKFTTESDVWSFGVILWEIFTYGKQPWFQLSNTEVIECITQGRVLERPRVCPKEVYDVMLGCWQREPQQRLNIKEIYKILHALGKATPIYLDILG
Description for KM12: Antiproliferative activity against human KM12 cells incubated for 72 hrs by CCK8 assay
Description for MCF7: Antiproliferative activity against human MCF7 cells incubated for 72 hrs by CCK8 assay

For the molecule `COc1ccc(F)cc1CNc1ccc2[nH]nc(C(=O)NCC(F)F)c2c1`, the IC50 in test [1] came out at 8590 nM. With `COc1ccc(F)cc1CNc1ccc2[nH]nc(C#N)c2c1`, the IC50 in [1] was determined as 170 nM. For the molecule `Fc1ccc(OCC(F)F)c(CNc2ccc3[nH]nc(-n4ccnn4)c3c2)c1`, the IC50 is 63 nM in [1]; 2 nM in [2]; 61 nM in test [3]; 3 nM in [4]; 4 nM in test [5]; 9.8 nM in the test on KM12. Also, the IC50 in the test on BaF3 [6] is 132 nM; in the test on BaF3 [7], 136 nM; with MCF7 it was more than 10000 nM. For `CNC(=O)c1n[nH]c2ccc(NCc3cc(F)ccc3OC)cc12`, the IC50 in [1] stood at 92 nM. Regarding `COc1ccc(F)cc1CNc1ccc2[nH]nc(-n3cc(C(F)(F)F)cn3)c2c1`, in test [1], the IC50 was 5700 nM. As to `COc1ccc(F)cc1CNc1ccc2[nH]nc(-c3ccc(F)cc3)c2c1`, the IC50 in test [1] came to 1350 nM. As to `CNC(=O)c1n[nH]c2ccc(NCc3cc(F)ccc3OCC(F)F)cc12`, in test [5], the IC50 was determined as 3 nM.

For the molecule `COc1ccc(F)cc1CNc1ccc2[nH]nc(-c3cccc(F)c3)c2c1`, the 50% inhibitory concentration (IC50) in test [1] turned out to be 360 nM. For `COc1ccc(F)cc1CNc1ccc2[nH]nc(C(=O)N3CCC(F)(F)C3)c2c1`, the IC50 in [1] was determined as 33100 nM. Still for that read-out and setting: for `CNC(=O)c1n[nH]c2ccc(NCc3cc(F)ccc3OC3CCOCC3)cc12` the value was 290 nM. For `Fc1ccc(OCC(F)F)c(CNc2ccc3[nH]nc(-c4cnoc4)c3c2)c1`, the IC50 in test [1] was 35 nM; in test [2], 8 nM; in test [3] it was 49 nM; in test [4] it was 5 nM.

Turning to `COc1ccc(F)cc1CNc1ccc2[nH]nc(C(=O)N3CCC(O)C3)c2c1` (stereo unspecified), the IC50 in test [1] is more than 50000 nM. Take `CNC(=O)c1n[nH]c2ccc(NCc3cc(F)ccc3OC3CCOC3)cc12` (stereo unspecified): in test [1], the IC50 was 210 nM. `CNC(=O)c1n[nH]c2ccc(NCc3cc(F)ccc3OC(F)F)cc12`: the IC50 in test [1] came out at 380 nM.

On to `COc1ccc(F)cc1CNc1ccc2[nH]nc(C(N)=O)c2c1`, for which, in test [1], the IC50 turned out to be 670 nM. In the case of `COc1ccc(F)cc1CNc1ccc2[nH]nc(-c3cn[nH]c3)c2c1`, the IC50 in test [1] was found to be 110 nM.

For `C[C@@H]1CCc2ncc(F)cc2[C@H]2CCCN2c2ccn3ncc(c3n2)C(=O)N1` [SELITRECTINIB], the IC50 with KM12 is 6.8 nM; in the test with BaF3 [6], 12 nM; in the test with BaF3 [7] it was 113 nM; in the test with MCF7 it was more than 10000 nM. `CNC(=O)c1n[nH]c2ccc(NCc3cc(F)ccc3OCC(F)(F)F)cc12`: the IC50 in test [1] stood at 140 nM. The same measure, in the same setting: for `CNC(=O)c1n[nH]c2ccc(NCc3cc(F)ccc3OC(C)C)cc12` the value was 240 nM.

On to `Fc1ccc(OCC(F)F)c(CNc2ccc3[nH]nc(-n4cncn4)c3c2)c1`, for which the IC50 in test [1] came to 19 nM; in test [2], 1 nM; in test [3], 25 nM; in test [4], 1 nM; in test [5] it was 2 nM; in the test on KM12, 5.7 nM. For the same molecule, the IC50 with BaF3 [6] is 54.5 nM; in the test on BaF3 [7] it was 64.1 nM; in the test with MCF7, more than 10000 nM. Take `COc1ccc(F)cc1CNc1ccc2[nH]nc(C(=O)NO)c2c1`: in test [1], the IC50 was 4830 nM. On the same count and under the same terms, as for `COc1ccc(F)cc1CNc1ccc2[nH]nc(-n3cccn3)c2c1`, the figure is 550 nM; as for `CNC(=O)c1n[nH]c2ccc(NCc3cc(F)ccc3P(C)(C)=O)cc12`, 5580 nM; as for `COc1ccc(F)cc1CNc1ccc2[nH]nc(C(=O)NC3CC3)c2c1`, 3650 nM. For the molecule `COc1ccc(F)cc1CNc1ccc2[nH]nc(-n3cnc(C(F)(F)F)c3)c2c1`, the IC50 in [1] was determined as 580 nM.

Regarding `CNC(=O)c1n[nH]c2ccc(NCc3cc(F)ccc3OCCO)cc12`, in test [1], the concentration for half-maximal inhibition (IC50) worked out at 1170 nM. Still for that read-out and setting: for `COc1ccc(F)cc1CNc1ccc2[nH]nc(-n3cc(F)cn3)c2c1` the value was 350 nM. Same read-out and setting: as for `CNC(=O)c1n[nH]c2ccc(NCc3cc(F)ccc3OCCF)cc12`, the figure is 200 nM.

`N#Cc1n[nH]c2ccc(NCc3cc(F)ccc3OCC(F)F)cc12`: the IC50 in [1] was determined as 30 nM; in [2], 10 nM; in test [3] it was 1200 nM; in test [4], 32 nM; in [5], 3 nM. Take `CNC(=O)c1n[nH]c2ccc(NCc3cc(F)ccc3S(C)(=O)=O)cc12`: the IC50 in test [1] is 1120 nM.

A word on the IC50: it is the point on the concentration scale where inhibition reaches its midpoint.

These data come from ChEMBL document CHEMBL5579859, “Discovery of novel indazole derivatives as second-generation TRK inhibitors” (Eur J Med Chem, 2024).
